Reference: PubChem BioAssay AID248 (DTP/NCI, 2004)
Toxic doses and inconclusive results are not listed. Rule as the data show it: active = T/C of 150% or more; inactive = T/C below 125%.

Tested on: L1210 leukemia ip in BDF1 mice, survival T/C
Test: NCI In Vivo Anticancer Drug Screen. Data for tumor model L1210 Leukemia (intraperitoneal) in B6D2F1 (BDF1) mice
Settings: endpoint: mean survival time, higher = longer survival
In short: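 In this screen, tumor-bearing mice given compound are compared to those given vehicle, and their survival values are reported as a treated-to-control quotient.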

Measured: T/C

Cc1c([N+](=O)[O-])cc(C(C)(C)C)c(OS(C)(=O)=O)c1[N+](=O)[O-]
inactive: dose: 25.0 mg/kg/injection, schedule: Q04DX002 (ip), vehicle: saline with Tween-80 92 % of control | dose: 50.0 mg/kg/injection, schedule: Q04DX002 (ip), vehicle: saline with Tween-80 99 % of control | dose: 100.0 mg/kg/injection, schedule: Q04DX002 (ip), vehicle: saline with Tween-80 96 % of control

CC(C)[C@](O)(C(=O)OCC1=CC[N+]2([O-])CC[C@@H](O)[C@@H]12)[C@H](C)O (some centres not stated)
inactive: dose: 6.2 mg/kg/injection, schedule: Q01DX009 (ip), vehicle: water 96 % of control | dose: 8.0 mg/kg/injection, schedule: Q03HX024 (ip), vehicle: water 91 % of control | dose: 12.5 mg/kg/injection, schedule: Q01DX009 (ip), vehicle: water 96 % of control | dose: 16.0 mg/kg/injection, schedule: Q03HX008 (ip), vehicle: water 101 % of control | dose: 16.0 mg/kg/injection, schedule: Q03HX016 (ip), vehicle: water 101 % of control | dose: 16.0 mg/kg/injection, schedule: Q03HX024 (ip), vehicle: water 96 % of control | dose: 25.0 mg/kg/injection, schedule: Q01DX009 (ip), vehicle: saline 90 % of control | dose: 25.0 mg/kg/injection, schedule: Q01DX009 (ip), vehicle: water 98 % of control | dose: 32.0 mg/kg/injection, schedule: Q03HX008 (ip), vehicle: water 99 % of control | dose: 32.0 mg/kg/injection, schedule: Q03HX016 (ip), vehicle: water 94 % of control | dose: 32.0 mg/kg/injection, schedule: Q03HX024 (ip), vehicle: water 95 % of control | dose: 50.0 mg/kg/injection, schedule: Q01DX009 (ip), vehicle: saline 93 % of control | dose: 50.0 mg/kg/injection, schedule: Q01DX009 (ip), vehicle: water 123 % of control | dose: 64.0 mg/kg/injection, schedule: Q01DX009 (ip), vehicle: saline 99 % of control | dose: 64.0 mg/kg/injection, schedule: Q01DX009 (ip), vehicle: water 97 % of control | dose: 64.0 mg/kg/injection, schedule: Q03HX008 (ip), vehicle: water 97 % of control | dose: 64.0 mg/kg/injection, schedule: Q03HX016 (ip), vehicle: water 94 % of control | dose: 64.0 mg/kg/injection, schedule: Q03HX024 (ip), vehicle: water 99 % of control | dose: 64.0 mg/kg/injection, schedule: Q04DX003 (ip), vehicle: water 97 % of control | dose: 100.0 mg/kg/injection, schedule: Q01DX009 (ip), vehicle: saline 96 % of control | dose: 100.0 mg/kg/injection, schedule: Q01DX009 (ip), vehicle: water 110 % of control | dose: 100.0 mg/kg/injection, schedule: Q04DX002 (ip), vehicle: saline 104 % of control | dose: 128.0 mg/kg/injection, schedule: Q01DX001 (ip), vehicle: water 98 % of control | dose: 128.0 mg/kg/injection, schedule: Q01DX009 (ip), vehicle: saline 103 % of control | dose: 128.0 mg/kg/injection, schedule: Q01DX009 (ip), vehicle: water 108 % of control | dose: 128.0 mg/kg/injection, schedule: Q01DX009 (sc), vehicle: water 95 % of control | dose: 128.0 mg/kg/injection, schedule: Q03HX008 (ip), vehicle: water 101 % of control | dose: 128.0 mg/kg/injection, schedule: Q03HX016 (ip), vehicle: water 99 % of control | dose: 128.0 mg/kg/injection, schedule: Q03HX024 (ip), vehicle: water 110 % of control | dose: 128.0 mg/kg/injection, schedule: Q04DX003 (ip), vehicle: water 105 % of control | dose: 128.0 mg/kg/injection, schedule: Q08DX002 (ip), vehicle: water 95 % of control | dose: 200.0 mg/kg/injection, schedule: Q01DX009 (ip), vehicle: water 117 % of control | dose: 200.0 mg/kg/injection, schedule: Q04DX002 (ip), vehicle: saline 123 % of control | dose: 256.0 mg/kg/injection, schedule: Q01DX001 (ip), vehicle: water 99 % of control | dose: 256.0 mg/kg/injection, schedule: Q01DX009 (ip), vehicle: saline 101 % of control | dose: 256.0 mg/kg/injection, schedule: Q01DX009 (ip), vehicle: water 117 % of control | dose: 256.0 mg/kg/injection, schedule: Q01DX009 (oral), vehicle: water 103 % of control | dose: 256.0 mg/kg/injection, schedule: Q01DX009 (sc), vehicle: water 97 % of control | dose: 256.0 mg/kg/injection, schedule: Q03HX008 (ip), vehicle: water 94 % of control | dose: 256.0 mg/kg/injection, schedule: Q04DX003 (ip), vehicle: water 100 % of control | dose: 256.0 mg/kg/injection, schedule: Q08DX002 (ip), vehicle: water 101 % of control | dose: 400.0 mg/kg/injection, schedule: Q01DX009 (ip), vehicle: saline 98 % of control | dose: 400.0 mg/kg/injection, schedule: Q04DX002 (ip), vehicle: saline 120 % of control | dose: 512.0 mg/kg/injection, schedule: Q01DX001 (ip), vehicle: water 101 % of control | dose: 512.0 mg/kg/injection, schedule: Q01DX009 (ip), vehicle: water 105 % of control | dose: 512.0 mg/kg/injection, schedule: Q01DX009 (oral), vehicle: water 94 % of control | dose: 512.0 mg/kg/injection, schedule: Q01DX009 (sc), vehicle: water 104 % of control | dose: 512.0 mg/kg/injection, schedule: Q04DX003 (ip), vehicle: water 100 % of control | dose: 512.0 mg/kg/injection, schedule: Q08DX002 (ip), vehicle: water 110 % of control | dose: 800.0 mg/kg/injection, schedule: Q01DX009 (ip), vehicle: saline 111 % of control | dose: 1024.0 mg/kg/injection, schedule: Q01DX001 (ip), vehicle: water 111 % of control | dose: 1024.0 mg/kg/injection, schedule: Q01DX009 (ip), vehicle: saline 104 % of control | dose: 1024.0 mg/kg/injection, schedule: Q01DX009 (oral), vehicle: water 108 % of control | dose: 1024.0 mg/kg/injection, schedule: Q04DX003 (ip), vehicle: water 119 % of control | dose: 1024.0 mg/kg/injection, schedule: Q08DX002 (ip), vehicle: water 117 % of control

ClC(Cl)=C(Cl)c1ccccc1
inactive: dose: 25.6 mg/kg/injection, schedule: Q04DX002 (ip), vehicle: saline with Tween-80 93 % of control | dose: 64.0 mg/kg/injection, schedule: Q04DX002 (ip), vehicle: saline with Tween-80 87 % of control | dose: 100.0 mg/kg/injection, schedule: Q04DX003 (ip), vehicle: saline with Tween-80 98 % of control | dose: 160.0 mg/kg/injection, schedule: Q04DX002 (ip), vehicle: saline with Tween-80 90 % of control | dose: 200.0 mg/kg/injection, schedule: Q04DX003 (ip), vehicle: saline with Tween-80 93 % of control | dose: 400.0 mg/kg/injection, schedule: Q04DX002 (ip), vehicle: saline with Tween-80 93 % of control | dose: 400.0 mg/kg/injection, schedule: Q04DX003 (ip), vehicle: saline with Tween-80 93 % of control

O=[N+]([O-])c1cccc(S(=O)(=O)NNc2cc(C(F)(F)F)ccc2Cl)c1
inactive: dose: 100.0 mg/kg/injection, schedule: Q01DX001 (ip), vehicle: Klucel (hydroxypropylcellulose) (HPC) 93 % of control | dose: 100.0 mg/kg/injection, schedule: Q04DX003 (ip), vehicle: Klucel (hydroxypropylcellulose) (HPC) 92 % of control | dose: 200.0 mg/kg/injection, schedule: Q01DX001 (ip), vehicle: Klucel (hydroxypropylcellulose) (HPC) 94 % of control | dose: 200.0 mg/kg/injection, schedule: Q04DX003 (ip), vehicle: Klucel (hydroxypropylcellulose) (HPC) 87 % of control | dose: 400.0 mg/kg/injection, schedule: Q01DX001 (ip), vehicle: Klucel (hydroxypropylcellulose) (HPC) 98 % of control | dose: 400.0 mg/kg/injection, schedule: Q04DX003 (ip), vehicle: Klucel (hydroxypropylcellulose) (HPC) 100 % of control

CCCCCC[As](=O)(O)CCCCCC
inactive: dose: 50.0 mg/kg/injection, schedule: Q01DX001 (ip), vehicle: saline 103 % of control
